T/C data for 17 compounds are collected here from PubChem BioAssay AID206 (DTP/NCI, 2004).

For the assay, the system named is nude mice, HT29 intrarenal xenograft, tumor weight T/C. In words: NCI In Vivo Anticancer Drug Screen. Data for tumor model HT29;CX-1 Human Adenocarcinoma (MER+) (intrarenal inoculation) in NU/NU Swiss (nude) mice. Particulars: endpoint: mean tumor weight change, higher = larger tumour. Put shortly:
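Tumor-bearing mice received test compound or vehicle, and tumor size or survival was recorded. Values are the treated-group measurement divided by the vehicle-treated control measurement.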

Setting [1] is: dose: 450.0 mg/kg/injection, schedule: Q04DX004 (sc), vehicle: saline with Tween-80.
[2] abbreviates: dose: 900.0 mg/kg/injection, schedule: Q04DX004 (sc), vehicle: saline with Tween-80.
[3] abbreviates: dose: 1800.0 mg/kg/injection, schedule: Q04DX004 (sc), vehicle: saline with Tween-80.
The mark [4] stands for this setting: dose: 400.0 mg/kg/injection, schedule: Q04DX004 (sc), vehicle: saline with Tween-80.

The structures appear in SMILES notation. Inconclusive results are not listed.

On to `CCCCCCCC(=O)OCC(=O)[C@]1(O)Cc2c(O)c3c(c(O)c2[C@@H](OC2CC(N)C(O)C(C)O2)C1)C(=O)c1c(OC)cccc1C3=O` (stereo partly specified), for which the T/C was 90 % of control (dose: 2.0 mg/kg/injection, schedule: Q04DX004 (sc), vehicle: suspension in saline); 222 % of control (dose: 4.0 mg/kg/injection, schedule: Q01DX010 (sc), vehicle: suspension in saline); 50 % of control (dose: 4.0 mg/kg/injection, schedule: Q04DX004 (sc), vehicle: suspension in saline); 106 % of control (dose: 5.0 mg/kg/injection, schedule: Q04DX004 (sc), vehicle: suspension in saline); 67 % of control (dose: 8.0 mg/kg/injection, schedule: Q01DX010 (sc), vehicle: suspension in saline); 42 % of control (dose: 8.0 mg/kg/injection, schedule: Q04DX004 (sc), vehicle: suspension in saline). The T/C runs as follows: (dose: 10.0 mg/kg/injection, schedule: Q04DX004 (sc), vehicle: suspension in saline) 29 % of control; (dose: 16.0 mg/kg/injection, schedule: Q04DX004 (sc), vehicle: suspension in saline) 33 % of control; (dose: 20.0 mg/kg/injection, schedule: Q04DX004 (sc), vehicle: suspension in saline) 42 % of control.
On to `COc1cccc2c1C(=O)c1c(O)c3c(c(O)c1C2=O)CC(O)(/C(C)=N/NC(=O)CCC(=O)N/N=C(\C)C1(O)Cc2c(O)c4c(c(O)c2C(OC2CC(N)C(O)C(C)O2)C1)C(=O)c1c(OC)cccc1C4=O)CC3OC1CC(N)C(O)C(C)O1` (stereo unspecified), for which the T/C is, setting by setting: (dose: 6.25 mg/kg/injection, schedule: Q01DX010 (sc), vehicle: water) 114 % of control; (dose: 12.5 mg/kg/injection, schedule: Q01DX010 (sc), vehicle: water) 47 % of control; (dose: 15.63 mg/kg/injection, schedule: Q04DX004 (sc), vehicle: water) 64 % of control; (dose: 25.0 mg/kg/injection, schedule: Q01DX010 (sc), vehicle: water) 46 % of control; (dose: 31.25 mg/kg/injection, schedule: Q04DX004 (sc), vehicle: water) 3 % of control; (dose: 62.5 mg/kg/injection, schedule: Q04DX004 (sc), vehicle: water) 120 % of control.
As to `CC(Cc1ccc(O)c(O)c1)C(C)Cc1ccc(O)c(O)c1` (stereo unspecified), the T/C is, setting by setting: (dose: 600.0 mg/kg/injection, schedule: Q04DX004 (sc), vehicle: saline + alcohol) 68 % of control; (dose: 900.0 mg/kg/injection, schedule: Q04DX004 (sc), vehicle: saline + alcohol) 102 % of control; (dose: 1800.0 mg/kg/injection, schedule: Q04DX004 (sc), vehicle: saline + alcohol) 97 % of control.
Regarding `O=NN(CCCl)C(=O)NC1CCCCC1`, the T/C (dose: 8.0 mg/kg/injection, schedule: Q01DX010 (sc), vehicle: saline with Tween-80) is 85 % of control; the T/C (dose: 8.0 mg/kg/injection, schedule: Q04DX004 (sc), vehicle: carboxymethylcellulose (CMC)) is 99 % of control; the T/C (dose: 16.0 mg/kg/injection, schedule: Q01DX010 (sc), vehicle: saline with Tween-80) was 42 % of control; the T/C (dose: 16.0 mg/kg/injection, schedule: Q04DX004 (sc), vehicle: carboxymethylcellulose (CMC)) was 86 % of control; the T/C (dose: 25.0 mg/kg/injection, schedule: Q04DX004 (sc), vehicle: Klucel (hydroxypropylcellulose) (HPC)) is 63 % of control; the T/C (dose: 32.0 mg/kg/injection, schedule: Q01DX010 (sc), vehicle: saline with Tween-80) was 77 % of control. Also, the T/C is 89 % of control (dose: 32.0 mg/kg/injection, schedule: Q04DX004 (sc), vehicle: carboxymethylcellulose (CMC)); 116 % of control (dose: 50.0 mg/kg/injection, schedule: Q04DX004 (sc), vehicle: Klucel (hydroxypropylcellulose) (HPC)); 101 % of control (dose: 64.0 mg/kg/injection, schedule: Q04DX004 (sc), vehicle: carboxymethylcellulose (CMC)).
With `CCN=C=NCCCN(C)C`, the T/C was 90 % of control (dose: 25.0 mg/kg/injection, schedule: Q04DX004 (sc), vehicle: saline); 78 % of control (dose: 50.0 mg/kg/injection, schedule: Q04DX004 (sc), vehicle: saline); 38 % of control (dose: 100.0 mg/kg/injection, schedule: Q04DX004 (sc), vehicle: saline).
As to `Nc1cc(Cl)c2[nH]cnc2n1`, the T/C is 160 % of control (dose: 100.0 mg/kg/injection, schedule: Q04DX004 (sc), vehicle: water) and 96 % of control (dose: 400.0 mg/kg/injection, schedule: Q04DX004 (sc), vehicle: water).
With `NC(C(=O)O)c1ccc(CBr)cc1` (stereo unspecified), the T/C (dose: 50.0 mg/kg/injection, schedule: Q04DX004 (sc), vehicle: acid diluted with saline) is 76 % of control; the T/C (dose: 100.0 mg/kg/injection, schedule: Q04DX004 (sc), vehicle: acid diluted with saline) is 70 % of control; the T/C (dose: 200.0 mg/kg/injection, schedule: Q04DX004 (sc), vehicle: acid diluted with saline) is 65 % of control; the T/C (dose: 400.0 mg/kg/injection, schedule: Q04DX004 (sc), vehicle: acid diluted with saline) was 52 % of control.
Take `[CH3][Sn]([CH3])([Cl])[S]CCN`: the T/C reads like this: (dose: 18.75 mg/kg/injection, schedule: Q04DX004 (sc), vehicle: suspension in saline) 92 % of control; (dose: 37.5 mg/kg/injection, schedule: Q04DX004 (sc), vehicle: suspension in saline) 65 % of control; (dose: 75.0 mg/kg/injection, schedule: Q04DX004 (sc), vehicle: suspension in saline) 40 % of control.
On to `CCC[CH2][Hg][Cl]`, for which the T/C runs as follows: (dose: 9.38 mg/kg/injection, schedule: Q04DX004 (sc), vehicle: Klucel (hydroxypropylcellulose) (HPC)) 83 % of control; (dose: 18.75 mg/kg/injection, schedule: Q04DX004 (sc), vehicle: Klucel (hydroxypropylcellulose) (HPC)) 72 % of control; (dose: 37.5 mg/kg/injection, schedule: Q04DX004 (sc), vehicle: Klucel (hydroxypropylcellulose) (HPC)) 45 % of control.
Regarding `N=[N+]=CC(=O)OCC(N)C(=O)O` (stereo unspecified), the T/C by setting is: (dose: 3.13 mg/kg/injection, schedule: Q01DX010 (sc), vehicle: saline) 212 % of control; (dose: 6.25 mg/kg/injection, schedule: Q01DX010 (sc), vehicle: saline) 87 % of control; (dose: 12.5 mg/kg/injection, schedule: Q01DX010 (sc), vehicle: saline) 85 % of control; (dose: 25.0 mg/kg/injection, schedule: Q01DX010 (sc), vehicle: saline) 123 % of control.
Regarding `COc1cccc2c1C(=O)c1c(O)c3c(c(O)c1C2=O)C[C@@](O)(C(=O)CO)C[C@@H]3OC1CC(N)C(OC)C(C)O1` (stereo partly specified), the T/C (dose: 3.13 mg/kg/injection, schedule: Q04DX004 (sc), vehicle: saline) was 207 % of control.
Consider `CC(=O)NC(Cc1ccc(F)cc1)C(=O)O` (stereo unspecified), for which the T/C was 108 % of control (dose: 225.0 mg/kg/injection, schedule: Q04DX004 (sc), vehicle: saline with Tween-80); 114 % of control under setting [1]; 83 % of control under setting [2]; 106 % of control under setting [3].
As for `Nc1nc(-c2cccc3ccccc23)cc2ccccc12`, the T/C (dose: 200.0 mg/kg/injection, schedule: Q04DX004 (sc), vehicle: saline with Tween-80) was 67 % of control and the T/C under setting [4] is 105 % of control.
Take `CCCCCCOC(CN(C)C)C(Cl)(Cl)Cl` (stereo unspecified): the T/C by setting is: under setting [4], 91 % of control; (dose: 800.0 mg/kg/injection, schedule: Q04DX004 (sc), vehicle: saline with Tween-80) 57 % of control; (dose: 1600.0 mg/kg/injection, schedule: Q04DX004 (sc), vehicle: saline with Tween-80) 81 % of control; (dose: 2400.0 mg/kg/injection, schedule: Q04DX004 (sc), vehicle: saline with Tween-80) 67 % of control.
With `CC(=O)O[C@@H]1[C@@H](O)C2=C3[C@]4(C)[C@@H]1C(C)(C)C(=O)C[C@@H]4[C@]3(O)[C@H](OC(C)=O)[C@@]1(C[C@@H]1C)C2=O`, the T/C (dose: 12.5 mg/kg/injection, schedule: Q01DX010 (sc), vehicle: saline with Tween-80) is 77 % of control; the T/C (dose: 25.0 mg/kg/injection, schedule: Q01DX010 (sc), vehicle: saline with Tween-80) was 122 % of control; the T/C (dose: 50.0 mg/kg/injection, schedule: Q01DX010 (sc), vehicle: saline with Tween-80) is 26 % of control; the T/C (dose: 100.0 mg/kg/injection, schedule: Q01DX010 (sc), vehicle: saline with Tween-80) was 68 % of control.
With `Nc1ccc(Cl)cc1N`, the T/C under setting [1] is 41 % of control, the T/C under setting [2] is 78 % of control and the T/C under setting [3] is 30 % of control.
`O=C(O)C1CSCN1` (stereo unspecified): the T/C is 96 % of control (dose: 50.0 mg/kg/injection, schedule: Q01DX010 (sc), vehicle: water) and 105 % of control (dose: 100.0 mg/kg/injection, schedule: Q01DX010 (sc), vehicle: water).
